In patent US20110135575A1, “METALLOPROTEIN MRI CONTRAST AGENTS AND RELATED METHODS” (Massachusetts Institute of Technology, priority 2007, published 2011):

Experiments:
[1] = test system: PC12 cells
Method: PC12 cells were grown in suspension in F-12K medium supplemented with 15% horse serum and 2.5% fetal bovine serum (ATCC, Manassas, Va.). In preparation for DA release experiments, 50 mL cell cultures were incubated for one hour in medium supplemented with 1 mM DA and 1 mM ascorbic acid, pelleted and washed twice with Locke's buffer (154 mM NaCl, 5.6 mM KCl, 3.6 mM NaHCO3, 2.3 mM CaCl2, 5.6 mM D-glucose, and 5 mM HEPES, pH 7.4). Washed PC12 cell pellets were resuspended in 200 microliters of Locke's buffer, with or without 32 micromolar BM3h-B7 sensor and containing either 5.6 or 59.6 mM K^+ (the low K^+ condition was osmotically balanced with Na^+). After 30-60 minutes incubation at room temperature, cells were pelleted and the supernatant was imaged in an MRI scanner as described above.

[2] = target: BM3 protein (Priestia megaterium, UniProt P14779); test: biochemical
From the text: In another example, a spectroscopic assay based on analyte-induced absorbance shifts was employed to estimate binding affinities and ligand selectivity of the mutant proteins in the above Examples. […] This method allowed both an estimation of an analyte's dissociation constant and a determination of selectivity.

[3] = T1 relaxivity / T1-weighted images in the presence of melatonin; format: biochemical; conditions: Example 3, FIGS. 8-9
[4] = T1 relaxivity by MRI in the presence of dopamine; conditions: Example 3, FIGS. 8-9
From the text: To determine the extent of that the interaction between exchanging water molecules at the axial site and the heme iron atom promotes T1 relaxation in aqueous solutions, a spin echo MRI pulse sequence was used to measure the proton relaxation rate as a function of protein concentration in phosphate buffered saline solution (PBS); the slope of this relationship (T1 relaxivity, or r1) provided a standard measure of the strength of a contrast agent.
Samples (60-100 microliters) were arrayed into microtiter plates and placed in a 40-cm-bore Bruker (Billerica, Mass.) Avance 4.7 T MRI scanner, equipped with a 10 cm inner diameter birdcage resonator radiofrequency coil and 26 G/cm triple axis gradients. Unused wells of the microtiter plates were filled with phosphate buffered saline, and imaging was performed on a 2-mm slice through the sample. A T1-weighted spin echo pulse sequence was used; echo time (TE) was 10 ms, and repetition times (TR) ranged from 77 ms to 5 s. Data matrices of 512×128 points were acquired and zero-filled to 1024×512 points, where the second dimension corresponds to the phase encoding direction. Images were reconstructed and analyzed using custom routines running in Matlab. Relaxation rates and relaxivities reported here were calculated by exponential fitting to the image data.

Molecule | DA concentration by ELISA, stimulated cells ([1]; K+-stimulated PC12 cells) [µM] | DA concentration by ELISA, control cells ([1]; Na+ control PC12 cells) [µM] | Kd [2] [µM] | T1 relaxivity response to melatonin [3] | relative T1 relaxivity response to DA versus 5-HT [4]
NCCc1ccc(O)c(O)c1 [dopamine] | 54 ± 9 | 13 ± 2 | ~1000 |  | 
NCCc1c[nH]c2ccc(O)cc12 [serotonin] |  |  | ~1000 |  | 
wild type BM3: wild type cytochrome P450-BM3 from Bacillus megaterium, provided by Frances Arnold's laboratory (protein, UniProt P14779 1-1049, looked up) Bifunctional cytochrome …: MTIKEMPQPKTFGELKNLPLLNTDKPVQALMKIADELGEIFKFEAPGRVTRYLSSQRLIKEACDESRFDKNLSQALKFVRDFAGDGLFTSWTHEKNWKKAHNILLPSFSQQAMKGYHAMMVDIAVQLVQKWERLNADEHIEVPEDMTRLTLDTIGLCGFNYRFNSFYRDQPHPFITSMVRALDEAMNKLQRANPDDPAYDENKRQFQEDIKVMNDLVDKIIADRKASGEQSDDLLTHMLNGKDPETGEPLDDENIRYQIITFLIAGHETTSGLLSFALYFLVKNPHVLQKAAEEAARVLVDPVPSYKQVKQLKYVGMVLNEALRLWPTAPAFSLYAKEDTVLGGEYPLEKGDELMVLIPQLHRDKTIWGDDVEEFRPERFENPSAIPQHAFKPFGNGQRACIGQQFALHEATLVLGMMLKHFDFEDHTNYELDIKETLTLKPEGFVVKAKSKKIPLGGIPSPSTEQSAKKVRKKAENAHNTPLLVLYGSNMGTAEGTARDLADIAMSKGFAPQVATLDSHAGNLPREGAVLIVTASYNGHPPDNAKQFVDWLDQASADEVKGVRYSVFGCGDKNWATTYQKVPAFIDETLAAKGAENIADRGEADASDDFEGTYEEWREHMWSDVAAYFNLDIENSEDNKSTLSLQFVDSAADMPLAKMHGAFSTNVVASKELQQPGSARSTRHLEIELPKEASYQEGDHLGVIPRNYEGIVNRVTARFGLDASQQIRLEAEEEKLAHLPLAKTVSVEELLQYVELQDPVTRTQLRAMAAKTVCPPHKVELEALLEKQAYKEQVLAKRLTMLELLEKYPACEMKFSEFIALLPSIRPRYYSISSSPRVDEKQASITVSVVSGEAWSGYGEYKGIASNYLAELQEGDTITCFISTPQSEFTLPKDPETPLIMVGPGTGVAPFRGFVQARKQLKEQGQSLGEAHLYFGCRSPHEDYLYQEELENAQSEGIITLHTAFSRMPNQPKTYVQHVMEQDGKKLIELLDQGAHFYICGDGSQMAPAVEATLMKSYADVHQVSEADARLWLQQLEEKGRYAKDVWAG |  |  |  | minimal response | greater response to DA
